Results on 8 compounds are retold here after PubChem BioAssay AID260 (DTP/NCI, 2004).

“And” between values parts separate entries of the source, which are not always exact repeats. Equal entries are not always repeated. Inconclusive results and toxic doses are left out.

For the assay, the system named is CD2F1 mice, intracerebral L1210 leukemia, survival T/C. Put plainly: NCI In Vivo Anticancer Drug Screen. Data for tumor model L1210 Leukemia (intracerebral) in CD2F1 (CDF1) mice. The following applies: higher = longer survival. How it is done:
The antitumor activity of compounds was measured in mice bearing transplantable tumors. Survival or tumor size were measured and the results are expressed as the measurement made in the treated group (T) divided by the measurement made in the vehicle treated control group (C). The tumor model used in this assay is L1210 Leukemia (intracerebral) in CD2F1 (CDF1) mice

The mark [1] stands for this setting: endpoint: median survival time, dose: 16.0 mg/kg/injection, schedule: Q01DX005 (ip), vehicle: saline with Tween-80.
[2] abbreviates: endpoint: median survival time, dose: 32.0 mg/kg/injection, schedule: Q01DX005 (ip), vehicle: saline with Tween-80.
Where [3] appears, read: endpoint: median survival time, dose: 64.0 mg/kg/injection, schedule: Q01DX005 (ip), vehicle: saline with Tween-80.
[4] abbreviates: endpoint: median survival time, dose: 8.0 mg/kg/injection, schedule: Q01DX009 (ip), vehicle: saline.

Consider `CCCCCCCCN(C)/N=N/c1nc[nH]c1C(N)=O`, for which the T/C is 119 % of control under setting [1]; 121 % of control under setting [2]; 124 % of control under setting [3]; 118 % of control (endpoint: median survival time, dose: 128.0 mg/kg/injection, schedule: Q01DX005 (ip), vehicle: saline with Tween-80); 89 % of control (endpoint: median survival time, dose: 256.0 mg/kg/injection, schedule: Q01DX005 (ip), vehicle: saline with Tween-80).
Consider `CCCCN(C)N=Nc1c(C(N)=O)n[nH]c1C`, for which the T/C was 108 % of control under setting [1], 112 % of control under setting [2] and 96 % of control under setting [3].
On to `CN(C)CCCN1c2ccccc2Sc2ccc(Cl)cc21`, for which, where the note is “endpoint: median survival time, dose: 50.0 mg/kg/injection, schedule: Q01DX001 (ip), vehicle: water”, the T/C was 113 % of control.
For the compound `O=NN(CCCl)C(=O)NCCCl`, the T/C is 175 % of control (endpoint: mean survival time, dose: 10.0 mg/kg/injection, schedule: Q01DX001 (ip), vehicle: saline); 184 % of control (endpoint: mean survival time, dose: 15.0 mg/kg/injection, schedule: Q01DX002 (ip), vehicle: saline + alcohol); 169 % of control and 182 % of control (endpoint: mean survival time, dose: 20.0 mg/kg/injection, schedule: Q01DX001 (ip), vehicle: saline + alcohol); 210 % of control and 254 % of control (endpoint: mean survival time, dose: 20.0 mg/kg/injection, schedule: Q01DX001 (ip), vehicle: saline); 281 % of control (endpoint: mean survival time, dose: 20.0 mg/kg/injection, schedule: Q01DX002 (ip), vehicle: saline + alcohol); 348 % of control (endpoint: mean survival time, dose: 25.0 mg/kg/injection, schedule: Q01DX002 (ip), vehicle: saline + alcohol). Further, the T/C is 220 % of control and 319 % of control (endpoint: mean survival time, dose: 30.0 mg/kg/injection, schedule: Q01DX001 (ip), vehicle: saline + alcohol); 184 % of control (endpoint: mean survival time, dose: 30.0 mg/kg/injection, schedule: Q01DX002 (ip), vehicle: saline + alcohol); 343 % of control (endpoint: mean survival time, dose: 40.0 mg/kg/injection, schedule: Q01DX001 (ip), vehicle: saline + alcohol); 202 % of control (endpoint: mean survival time, dose: 40.0 mg/kg/injection, schedule: Q01DX001 (ip), vehicle: saline); 93 % of control (endpoint: median survival time, dose: 4.0 mg/kg/injection, schedule: Q01DX001 (ip), vehicle: saline + alcohol); 97 % of control (endpoint: median survival time, dose: 8.0 mg/kg/injection, schedule: Q01DX001 (ip), vehicle: saline + alcohol). For the same compound, the T/C (endpoint: median survival time, dose: 12.5 mg/kg/injection, schedule: Q01DX001 (ip), vehicle: DMSO) is 173 % of control; the T/C (endpoint: median survival time, dose: 16.0 mg/kg/injection, schedule: Q01DX001 (ip), vehicle: saline + alcohol) is 97 % of control; the T/C (endpoint: median survival time, dose: 20.0 mg/kg/injection, schedule: Q01DX001 (ip), vehicle: distilled water + alcohol) was 305 % of control; the T/C (endpoint: median survival time, dose: 20.0 mg/kg/injection, schedule: Q01DX001 (ip), vehicle: saline + alcohol) is 190 % of control; the T/C (endpoint: median survival time, dose: 24.0 mg/kg/injection, schedule: Q01DX001 (ip), vehicle: saline + alcohol) was 122 % of control and 153 % of control and 270 % of control; the T/C (endpoint: median survival time, dose: 25.0 mg/kg/injection, schedule: Q01DX001 (ip), vehicle: DMSO) is 253 % of control. Also, the T/C (endpoint: median survival time, dose: 30.0 mg/kg/injection, schedule: Q01DX001 (ip), vehicle: saline + alcohol) was 201 % of control and 313 % of control; the T/C (endpoint: median survival time, dose: 40.0 mg/kg/injection, schedule: Q01DX001 (ip), vehicle: distilled water + alcohol) was 183 % of control; the T/C (endpoint: median survival time, dose: 40.0 mg/kg/injection, schedule: Q01DX001 (ip), vehicle: saline + alcohol) was 220 % of control; the T/C (endpoint: median survival time, dose: 60.0 mg/kg/injection, schedule: Q01DX001 (ip), vehicle: saline + alcohol) was 166 % of control.
`COc1cc(C[C@H]2c3cc(OC)c(OC)cc3CCN2C)c(Oc2cc3c(cc2OC)-c2c(OC)c(OC)cc4c2[C@H](C3)N(C)CC4)cc1OC`: the T/C by setting is: (endpoint: median survival time, dose: 50.0 mg/kg/injection, schedule: Q01DX005 (ip), vehicle: Klucel (hydroxypropylcellulose) (HPC)) 97 % of control; (endpoint: median survival time, dose: 100.0 mg/kg/injection, schedule: Q01DX005 (ip), vehicle: Klucel (hydroxypropylcellulose) (HPC)) 102 % of control; (endpoint: median survival time, dose: 200.0 mg/kg/injection, schedule: Q01DX005 (ip), vehicle: Klucel (hydroxypropylcellulose) (HPC)) 94 % of control.
Take `COc1cc([C@@H]2c3cc4c(cc3[C@@H](OC3OC5CO[C@@H](c6cccs6)OC5C(O)C3O)[C@H]3COC(=O)[C@H]23)OCO4)cc(OC)c1O` (some centres not stated): the T/C is, setting by setting: (endpoint: median survival time, dose: 0.25 mg/kg/injection, schedule: Q01DX009 (ip), vehicle: saline) 101 % of control and 108 % of control; (endpoint: median survival time, dose: 0.5 mg/kg/injection, schedule: Q01DX009 (ip), vehicle: saline) 108 % of control and 111 % of control; (endpoint: median survival time, dose: 1.0 mg/kg/injection, schedule: Q01DX009 (ip), vehicle: saline) 111 % of control and 116 % of control; (endpoint: median survival time, dose: 2.0 mg/kg/injection, schedule: Q01DX009 (ip), vehicle: saline) 124 % of control and 114 % of control; (endpoint: median survival time, dose: 4.0 mg/kg/injection, schedule: Q01DX009 (ip), vehicle: saline) 122 % of control and 104 % of control; under setting [4], 88 % of control.
With `CCC(=O)O[C@H]1CC[C@H]2[C@@H]3CCC4=CC(=O)CC[C@]4(C)[C@H]3CC[C@]12C`, the T/C runs as follows: (endpoint: median survival time, dose: 8.0 mg/kg/injection, schedule: Q01DX009 (ip), vehicle: saline with Tween-80) 121 % of control; under setting [4], 109 % of control; (endpoint: median survival time, dose: 16.0 mg/kg/injection, schedule: Q01DX009 (ip), vehicle: saline with Tween-80) 110 % of control; (endpoint: median survival time, dose: 16.0 mg/kg/injection, schedule: Q01DX009 (ip), vehicle: saline) 102 % of control; (endpoint: median survival time, dose: 32.0 mg/kg/injection, schedule: Q01DX009 (ip), vehicle: saline with Tween-80) 118 % of control; (endpoint: median survival time, dose: 32.0 mg/kg/injection, schedule: Q01DX009 (ip), vehicle: saline) 104 % of control. For the same compound, the T/C runs as follows: (endpoint: median survival time, dose: 64.0 mg/kg/injection, schedule: Q01DX009 (ip), vehicle: saline with Tween-80) 118 % of control; (endpoint: median survival time, dose: 128.0 mg/kg/injection, schedule: Q01DX009 (ip), vehicle: saline with Tween-80) 110 % of control; (endpoint: median survival time, dose: 128.0 mg/kg/injection, schedule: Q01DX009 (ip), vehicle: saline) 224 % of control; (endpoint: median survival time, dose: 256.0 mg/kg/injection, schedule: Q01DX009 (ip), vehicle: saline with Tween-80) 101 % of control; (endpoint: median survival time, dose: 256.0 mg/kg/injection, schedule: Q01DX009 (ip), vehicle: saline) 120 % of control; (endpoint: median survival time, dose: 512.0 mg/kg/injection, schedule: Q01DX009 (ip), vehicle: saline with Tween-80) 105 % of control. Further, the T/C (endpoint: median survival time, dose: 512.0 mg/kg/injection, schedule: Q01DX009 (ip), vehicle: saline) is 116 % of control.
Take `CN(N=O)C(=O)N[C@@H](C=O)[C@@H](O)[C@H](O)[C@H](O)CO`: the T/C is, setting by setting: (endpoint: mean survival time, dose: 50.0 mg/kg/injection, schedule: Q01DX005 (ip), vehicle: saline) 100 % of control; (endpoint: mean survival time, dose: 50.0 mg/kg/injection, schedule: Q01DX009 (ip), vehicle: saline) 102 % of control; (endpoint: mean survival time, dose: 100.0 mg/kg/injection, schedule: Q01DX005 (ip), vehicle: saline) 102 % of control; (endpoint: mean survival time, dose: 100.0 mg/kg/injection, schedule: Q01DX009 (ip), vehicle: saline) 100 % of control; (endpoint: mean survival time, dose: 200.0 mg/kg/injection, schedule: Q01DX005 (ip), vehicle: saline) 104 % of control; (endpoint: mean survival time, dose: 200.0 mg/kg/injection, schedule: Q01DX009 (ip), vehicle: saline) 100 % of control. In addition, the T/C (endpoint: mean survival time, dose: 400.0 mg/kg/injection, schedule: Q01DX009 (ip), vehicle: saline) was 95 % of control; the T/C (endpoint: median survival time, dose: 75.0 mg/kg/injection, schedule: Q01DX001 (ip), vehicle: DMSO) was 102 % of control; the T/C (endpoint: median survival time, dose: 75.0 mg/kg/injection, schedule: Q01DX001 (ip), vehicle: other) is 103 % of control; the T/C (endpoint: median survival time, dose: 75.0 mg/kg/injection, schedule: Q01DX001 (oral), vehicle: saline) is 109 % of control; the T/C (endpoint: median survival time, dose: 150.0 mg/kg/injection, schedule: Q01DX001 (ip), vehicle: DMSO) was 114 % of control; the T/C (endpoint: median survival time, dose: 150.0 mg/kg/injection, schedule: Q01DX001 (ip), vehicle: other) is 107 % of control. For the same compound, the T/C is 100 % of control (endpoint: median survival time, dose: 150.0 mg/kg/injection, schedule: Q01DX001 (oral), vehicle: saline); 114 % of control (endpoint: median survival time, dose: 300.0 mg/kg/injection, schedule: Q01DX001 (ip), vehicle: DMSO); 109 % of control (endpoint: median survival time, dose: 300.0 mg/kg/injection, schedule: Q01DX001 (ip), vehicle: other); 113 % of control (endpoint: median survival time, dose: 300.0 mg/kg/injection, schedule: Q01DX001 (oral), vehicle: saline); 112 % of control (endpoint: median survival time, dose: 500.0 mg/kg/injection, schedule: Q01DX001 (ip), vehicle: DMSO); 103 % of control (endpoint: median survival time, dose: 500.0 mg/kg/injection, schedule: Q01DX001 (ip), vehicle: other). Moreover, the T/C (endpoint: median survival time, dose: 500.0 mg/kg/injection, schedule: Q01DX001 (oral), vehicle: saline) was 100 % of control.
